Values joined by “and” are separate entries in the source; they are usually repeats but may differ in a detail not shown here. Identical values can stand only once. Like-named read-outs stand apart in the source and are kept apart here.
Test system: patients with ALS
[1] = 50 mg, No Riluzole Use, through Week 28
[2] = 50 mg, Riluzole Use, through Week 28
[3] = 50 mg, double-blind treatment period
[4] = 50 mg, through the end of the study
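Also: adverse event data gathered at every clinic visit and phone contact, after first study drug dose, in a blinded trial, counts of affected subjects.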

## CCCN[C@@H]1CCc2nc(N)sc2C1 [dexpramipexole, (6R)-2-amino-4,5,6,7-tetrahydro-6-(propylamino)benzothiazole]
50 mg
  subjects with increase from baseline in QTcF >30 msec: Four
50 mg and 300 mg groups together, double-blind period
  subjects with decrease in weight >7% from baseline: 30 subjects
[1]
  AE: Anxiety: 1 (4%) N (%)
  AE: Constipation: 4 (17%) N (%)
  AE: Depression: 4 (17%) N (%)
  AE: Dry mouth: 0 N (%)
  AE: Dysarthria: 1 (4%) N (%)
  AE: Dyspnoea: 3 (13%) N (%)
  AE: Fall: 6 (26%) N (%)
  AE: Headache: 1 (4%) N (%)
  AE: Muscular weakness: 7 (30%) N (%)
  AE: Nausea: 2 (9%) N (%)
  AE: Oedema peripheral: 4 (17%) N (%)
  AE: Pharyngolaryngeal pain: 1 (4%) N (%)
  AE: Sinusitis: 1 (4%) N (%)
  AE: Upper respiratory tract infection: 2 (9%) N (%)
  AE: Urinary tract infection: 1 (4%) N (%)
[2]
  AE: Anxiety: 1 (4%) N (%)
  AE: Constipation: 4 (16%) N (%)
  AE: Depression: 2 (8%) N (%)
  AE: Dry mouth: 1 (4%) N (%)
  AE: Dysarthria: 3 (12%) N (%)
  AE: Dyspnoea: 2 (8%) N (%)
  AE: Fall: 5 (20%) N (%)
  AE: Headache: 2 (8%) N (%)
  AE: Muscular weakness: 6 (24%) N (%)
  AE: Nausea: 2 (8%) N (%)
  AE: Oedema peripheral: 3 (12%) N (%)
  AE: Pharyngolaryngeal pain: 3 (12%) N (%)
  AE: Sinusitis: 1 (4%) N (%)
  AE: Upper respiratory tract infection: 3 (12%) N (%)
  AE: Urinary tract infection: 2 (8%) N (%)
50 mg, any post-baseline visit
  incidence of ECGs with QTcB increased >30 msec from baseline: 17%
  subjects with QTcF interval >450 msec: Two
[3]
  AEs related to ALS as assessed by the Investigator: 85%
  subjects with prolonged QTcB: 6 subjects
  subjects with serum chemistry abnormalities of potential clinical significance: 4 subjects
50 mg, through Week 28
  ALS-related TEAE: Affect liability: 2 (4%) N (%)
  ALS-related TEAE: Arthralgia: 1 (2%) N (%)
  ALS-related TEAE: Choking: 2 (4%) N (%)
  ALS-related TEAE: Constipation: 4 (8%) N (%)
  ALS-related TEAE: Contusion: 1 (2%) N (%)
  ALS-related TEAE: Dehydration: 0 N (%)
  ALS-related TEAE: Depression: 1 (2%) N (%)
  ALS-related TEAE: Disease progression: 2 (4%) N (%)
  ALS-related TEAE: Dysarthria: 4 (8%) N (%)
  ALS-related TEAE: Dysphagia: 5 (10%) N (%)
  ALS-related TEAE: Dysphasia: 1 (2%) N (%)
  ALS-related TEAE: Dyspnoea: 4 (8%) N (%)
  ALS-related TEAE: Dyspnoea exertional: 0 N (%)
  ALS-related TEAE: Fall: 10 (21%) N (%)
  ALS-related TEAE: Fatigue: 3 (6%) N (%)
  ALS-related TEAE: Gastrointestinal Disorders: 16 (33%) N (%)
  ALS-related TEAE: General Disorders and Administration Site Conditions: 8 (17%) N (%)
  ALS-related TEAE: Increased upper airway secretion: 1 (2%) N (%)
  ALS-related TEAE: Injury, Poisoning and Procedural Complications: 10 (21%) N (%)
  ALS-related TEAE: Investigations: 3 (6%) N (%)
  ALS-related TEAE: Metabolism and Nutrition Disorders: 1 (2%) N (%)
  ALS-related TEAE: Muscle contractions involuntary: 3 (6%) N (%)
  ALS-related TEAE: Muscle spasticity: 5 (10%) N (%)
  ALS-related TEAE: Muscle twitching: 1 (2%) N (%)
  ALS-related TEAE: Muscular weakness: 12 (25%) N (%)
  ALS-related TEAE: Musculoskeletal and Connective Tissue Disorders: 19 (40%) N (%)
  ALS-related TEAE: Musculoskeletal pain: 1 (2%) N (%)
  ALS-related TEAE: Myalgia: 2 (4%) N (%)
  ALS-related TEAE: Neck pain: 1 (2%) N (%)
  ALS-related TEAE: Nervous System Disorders: 11 (23%) N (%)
  ALS-related TEAE: Oedema peripheral: 3 (6%) N (%)
  ALS-related TEAE: Pain in extremity: 2 (4%) N (%)
  ALS-related TEAE: Psychiatric Disorders: 2 (4%) N (%)
  ALS-related TEAE: Respiratory failure: 4 (8%) N (%)
  ALS-related TEAE: Respiratory, Thoracic and Mediastinal Disorders: 11 (23%) N (%)
  ALS-related TEAE: Salivary hypersecretion: 8 (17%) N (%)
  ALS-related TEAE: Vital capacity decreased: 2 (4%) N (%)
  ALS-related TEAE: Weight decreased: 0 N (%)
  Number of TEAEs: 277
  Number of serious TEAEs: 15
  Number of serious treatment-related TEAE: 1
  Number of severe TEAEs: 17
  Number of treatment-related TEAEs: 35
  TEAE: Anxiety: 2 (4%) N (%)
  TEAE: Arthralgia: 2 (4%) N (%)
  TEAE: Cardiac Disorders: 2 (4%) N (%)
  TEAE: Constipation: 8 (17%) N (%)
  TEAE: Cough: 1 (2%) N (%)
  TEAE: Dehydration: 1 (2%) N (%)
  TEAE: Depression: 6 (13%) N (%)
  TEAE: Dizziness: 0 N (%)
  TEAE: Dry mouth: 2 N (%) and 1 (2%) N (%)
  TEAE: Dysarthria: 4 (8%) N (%)
  TEAE: Dysphagia: 5 (10%) N (%)
  TEAE: Dyspnoea: 5 (10%) N (%)
  TEAE: Fall: 11 (23%) N (%)
  TEAE: Fatigue: 3 (6%) N (%)
  TEAE: Gastrointestinal Disorders: 21 (44%) N (%)
  TEAE: General Disorders and Administration Site Conditions: 14 (29%) N (%)
  TEAE: Headache: 3 (6%) N (%)
  TEAE: Hyperglycaemia: 0 N (%)
  TEAE: Infections and Infestations: 21 (44%) N (%)
  TEAE: Injury, Poisoning and Procedural Complication: 15 (31%) N (%)
  TEAE: Insomnia: 0 N (%)
  TEAE: Metabolism and Nutrition Disorders: 6 (13%) N (%)
  TEAE: Muscle contractions involuntary: 3 (6%) N (%)
  TEAE: Muscle spasticity: 5 (10%) N (%)
  TEAE: Musculoskeletal and Connective Tissue Disorders: 22 (46%) N (%)
  TEAE: Musculoskeletal pain: 2 (4%) N (%)
  TEAE: Nausea: 4 (8%) N (%)
  TEAE: Neck pain: 1 (2%) N (%)
  TEAE: Nervous System Disorders: 16 (33%) N (%)
  TEAE: Pharyngolaryngeal pain: 4 (8%) N (%)
  TEAE: Pneumonia: 3 (6%) N (%)
  TEAE: Pruritus: 3 (6%) N (%)
  TEAE: Psychiatric Disorders: 9 (19%) N (%)
  TEAE: Rash: 2 (4%) N (%)
  TEAE: Respiratory failure: 4 (8%) N (%)
  TEAE: Respiratory, Thoracic and Mediastinal Disorders: 17 (35%) N (%)
  TEAE: Salivary hypersecretion: 8 (17%) N (%)
  TEAE: Sinusitis: 2 (4%) N (%)
  TEAE: Skin and Subcutaneous Tissue Disorders: 14 (29%) N (%)
  TEAE: Tachycardia: 1 (2%) N (%)
  TEAE: Upper respiratory tract infection: 5 (10%) N (%)
  TEAE: Urinary tract infection: 3 (6%) N (%)
  TEAE: Vomiting: 3 (6%) N (%)
  serious TEAE: Acute myocardial infarction: 1 (2%) N (%)
  serious TEAE: Atrial fibrillation: 0 N (%)
  serious TEAE: Blood and Lymphatic System Disorders: 0 N (%)
  serious TEAE: Cardiac Disorders: 1 (2%) N (%)
  serious TEAE: Cardiac failure congestive: 1 (2%) N (%)
  serious TEAE: Cholecystitis acute: 0 N (%)
  serious TEAE: Concussion: 0 N (%)
  serious TEAE: Disease progression: 1 (2%) N (%)
  serious TEAE: Dyspnoea: 1 (2%) N (%)
  serious TEAE: Fall: 0 N (%)
  serious TEAE: Gastrointestinal Disorders: 1 (2%) N (%)
  serious TEAE: General Disorders and Administration Site Conditions: 2 (4%) N (%)
  serious TEAE: Hepatobiliary Disorders: 0 N (%)
  serious TEAE: Ileus: 1 (2%) N (%)
  serious TEAE: Infections and Infestations: 3 (6%) N (%)
  serious TEAE: Injury, Poisoning and Procedural Complications: 0 N (%)
  serious TEAE: Neutropenia: 0 N (%)
  serious TEAE: Pneumonia: 1 (2%) N (%)
  serious TEAE: Pneumonia aspiration: 0 N (%)
  serious TEAE: Pneumonia bacterial: 1 (2%) N (%)
  serious TEAE: Pulmonary embolism: 1 (2%) N (%)
  serious TEAE: Respiratory distress: 1 (2%) N (%)
  serious TEAE: Respiratory failure: 4 (8%) N (%)
  serious TEAE: Respiratory, Thoracic and Mediastinal Disorders: 5 (10%) N (%)
  serious TEAE: Subdural haematoma: 0 N (%)
  serious TEAE: Sudden death: 1 (2%) N (%)
  serious TEAE: Viral infection: 1 (2%) N (%)
  ≧1 TEAE with an outcome of death: 7 N (%) and 7 (15%) N (%)
  ≧1 serious TEAE (including death): 11 N (%) and 11 (23%) N (%)
  ≧1 serious treatment-related TEAE: 1 (2%) N (%)
  ≧1 severe TEAE: 12 (25%) N (%) and 12 N (%)
[4]
  Number of TEAEs: 333
  Number of serious TEAEs: 18
  Number of serious treatment-related TEAEs: 1
  Number of severe TEAEs: 20
  Number of treatment-related TEAEs: 39
  Subjects with a TEAE with action taken of study drug discontinued: 2 N (%) and 2 (4%) N (%)
  subjects with TEAEs with an outcome of death (b230 count): 7 subjects
  ≧1 TEAE with an outcome of death: 7 N (%) and 7 (15%) N (%)
  ≧1 serious TEAE (including death): 14 N (%) and 14 (29%) N (%)
